Experimental data: patent US12180214B2, “Crystalline forms of (s)-4-amino-6-((1-(3-chloro-6-phenylimidazo[1,2-b]pyridazine-7-yl)ethyl)amino)pyrimidine-5-carbonitrile as inhibitors of phosphatidylinositol-3-kinase” (HUTCHISON MEDIPHARMA LIMITED, priority 2018, dated 2024)
Converted amounts (≈) assume the structure as drawn.

Columns and labels:
Assay type in all cases: physicochemical
[1] = Stability of Form I, Form IV, and Form V under high temperature, high humidity and illumination conditions; settings: for Stability (chemical purity and crystalline form), conclusion: high temperature, high humidity, and illumination conditions for 10 days
Method: Determination method: the test samples of Form I, Form IV, and Form V of compound of Formula A were placed on the culture dishes respectively, which were uncovered and placed in sealed clean containers. The containers were placed under the conditions of a temperature of 60° C., a temperature of 25° C. and a relative humidity of 92.5%±5%, and an illumination of 4500 lx±500 lx respectively for 10 days. Then sampled, investigated for the purity and crystalline form of the samples, and compared the investigation results.

[2] = Solubility of Form I, Form IV, and Form V in buffers of different pH; settings: for solubility at 0.5 hour / solubility at 2 hours: buffer, 37 °C, thermodynamic from solid; for Solubility in the test buffers, conclusion: buffers pH 1.2-6.8, 37° C.
Method: Determination method: excess amount of samples of Form I, Form IV, and Form V of compound of Formula A were suspended in the buffers of different pH respectively. The system was saturated by shaking for a period of time at 37° C. in a water bath of constant temperature. Then the system was filtered, and the filtrate was used for determining solubility of the samples. The buffers of different pH were prepared according to the US pharmacopeia (USP40-NF35).

[3] = Hygroscopicity by dynamic vapor sorption (DVS); settings: relative humidity of 0-95% at 25° C.
Method: Determination method: the test samples of Form I, Form IV, and Form V of compound of Formula A were placed in the sample dishes of the dynamic vapor sorption instrument (DVS-INTRINSIC) respectively. Then the weight gains by moisture absorption of the samples were measured at a relative humidity of 0-95% at 25° C. The results were shown in FIG. 16, FIG. 17, and FIG. 18.

[4] = Stability of Form IV mixed with excipients (starch, microcrystalline cellulose); settings: high temperature, high humidity, and illumination conditions, 30 days
Method: Determination method: 50 mg of samples of Form IV of compound of Formula A were mixed with 200 mg of excipients starch and microcrystalline cellulose respectively. The mixtures were used as Lest samples and placed on the culture dishes respectively, which were uncovered and placed in sealed clean containers. Then the containers were placed under the conditions of a temperature of 60° C., a temperature of 25° C. and a relative humidity of 92.5%±5%, and an illumination of 4500 lx±500 lx respectively for 30 days. Then sampled, investigated for the change of crystalline form of the samples, and compared the investigation results.

[5] = High humidity (92.5% RH), 25° C., 5 days
[6] = High humidity (92.5% RH), 25° C., 10 days
[7] = High temperature (60° C.), 5 days
[8] = High temperature (60° C.), 10 days
[9] = Illumination (4500 Lx), 10 days

For `C[C@H](Nc1ncnc(N)c1C#N)c1cc2ncc(Cl)n2nc1-c1ccccc1` [Form I, (S)-4-amino-6-((1-(3-chloro-6-phenylimidazo[1,2-b]pyridazin-7-yl)ethyl)amino)pyrimidine-5-carbonitrile], the “Chemical purity (%)” value ([1]; 0 day) was 99.76%, the “Chemical purity (%)” value [1, 5] was 99.65% and the “Chemical purity (%)” value [1, 6] was 99.60%. For the same compound, the “Chemical purity (%)” value [1, 7] was 99.63%, the “Chemical purity (%)” value [1, 8] was 99.63% and the “Chemical purity (%)” value ([1]; Illumination (4500 Lx), 5 days) was 99.61%. The “Chemical purity (%)” value [1, 9] was 99.45%, the “Stability (chemical purity and crystalline form), conclusion” value [1] was “stable” and the solubility at 0.5 hour ([2]; pH 1.2, simulated gastric fluid, buffer pH 1.2, shaken at 37° C. water bath for 0.5 hour) was 10800 µg/mL (≈ 27600 µM). It also gave a solubility at 0.5 hour ([2]; pH 2.1, aqueous buffer, buffer pH 2.1, shaken at 37° C. water bath for 0.5 hour) of 800 µg/mL (≈ 2050 µM), a solubility at 0.5 hour ([2]; pH 4.5, aqueous buffer, buffer pH 4.5, shaken at 37° C. water bath for 0.5 hour) of 40 µg/mL (≈ 102 µM) and a solubility at 0.5 hour ([2]; pH 6.8, aqueous buffer, buffer pH 6.8, shaken at 37° C. water bath for 0.5 hour) of 30 µg/mL (≈ 76.8 µM). The “Solubility in the test buffers, conclusion” value (shortened to “Solubility … conclusion”) [2] was “good solubility” and the “Hygroscopicity (weight gain by moisture absorption)” value (shortened to “Hygroscopicity”) [3] was “non-hygroscopic”.

With `C[C@H](Nc1ncnc(N)c1C#N)c1cc2ncc(Cl)n2nc1-c1ccccc1` [Form IV, (S)-4-amino-6-((1-(3-chloro-6-phenylimidazo[1,2-b]pyridazin-7-yl)ethyl)amino)pyrimidine-5-carbonitrile] the “Chemical purity (%)” value ([1]; 0 day) was 99.27%, the “Chemical purity (%)” value [1, 5] was 99.68% and the “Chemical purity (%)” value [1, 6] was 99.68%. For the same compound, the “Chemical purity (%)” value [1, 7] was 99.57%, the “Chemical purity (%)” value [1, 8] was 99.68% and the “Chemical purity (%)” value ([1]; Illumination (4500 Lx), 5 days) was 99.59%. The “Chemical purity (%)” value [1, 9] was 99.55%, the “Stability (chemical purity and crystalline form), conclusion” value [1] was “stable” and the “Stability mixed with excipients, conclusion” value [4] was “stable”. It also gave a solubility at 2 hours ([2]; pH 1.2, simulated gastric fluid, buffer pH 1.2, shaken at 37° C. water bath for 2 hours) of 8560 µg/mL (≈ 21900 µM), a solubility at 2 hours ([2]; pH 2.1, aqueous buffer, buffer pH 2.1, shaken at 37° C. water bath for 2 hours) of 500 µg/mL (≈ 1280 µM) and a solubility at 2 hours ([2]; pH 4.5, aqueous buffer, buffer pH 4.5, shaken at 37° C. water bath for 2 hours) of 20 µg/mL (≈ 51.2 µM). The solubility at 2 hours ([2]; pH 6.8, aqueous buffer, buffer pH 6.8, shaken at 37° C. water bath for 2 hours) was 20 µg/mL (≈ 51.2 µM), the “Solubility … conclusion” value [2] was “good solubility” and the “Hygroscopicity” value [3] was “non-hygroscopic”.

In the case of `C[C@H](Nc1ncnc(N)c1C#N)c1cc2ncc(Cl)n2nc1-c1ccccc1` [Form V, (S)-4-amino-6-((1-(3-chloro-6-phenylimidazo[1,2-b]pyridazin-7-yl)ethyl)amino)pyrimidine-5-carbonitrile], the “Chemical purity (%)” value ([1]; 0 day) is reported as 99.70%, the “Chemical purity (%)” value [1, 5] is reported as 99.88% and the “Chemical purity (%)” value [1, 6] is reported as 99.87%. For the same compound, the “Chemical purity (%)” value [1, 7] was 99.88%, the “Chemical purity (%)” value [1, 8] was 99.87% and the “Chemical purity (%)” value ([1]; Illumination (4500 Lx), 5 days) was 99.85%. The “Chemical purity (%)” value [1, 9] was 99.81%, the “Stability (chemical purity and crystalline form), conclusion” value [1] was “stable” and the “Solubility” value ([2]; buffer pH 1.2, shaken at 37° C. water bath for 2 hours) was 9640 µg/mL (≈ 24700 µM). The “Solubility” value ([2]; buffer pH 2.1, shaken at 37° C. water bath for 2 hours) was 580 µg/mL (≈ 1480 µM), the “Solubility” value ([2]; buffer pH 4.5, shaken at 37° C. water bath for 2 hours) was 20 µg/mL (≈ 51.2 µM) and the “Solubility” value ([2]; buffer pH 6.8, shaken at 37° C. water bath for 2 hours) was 20 µg/mL (≈ 51.2 µM). For the same compound, the “Solubility … conclusion” value [2] was “good solubility” and the “Hygroscopicity” value [3] was “non-hygroscopic”.
